How the values were obtained:
[1] = test system: platinum-resistant ovarian cancer (PROC); assay: Randomized phase 3 study ENGOT-ov50/GOG-3029/INNOVATE-3 (NCT03940196): TTFields therapy with weekly paclitaxel vs weekly paclitaxel alone; type: in vivo, human
Description: This randomized phase 3 study investigated TTFields therapy with paclitaxel (TTFields+PTX) vs paclitaxel (PTX) in patients with platinum-resistant ovarian cancer (PROC).
To evaluate the safety and efficacy of TTFields therapy with weekly paclitaxel compared to weekly paclitaxel alone in PROC, the Phase 3 study design shown in FIG. 1 was utilized. ENGOT-ov50/GOG-3029/INNOVATE-3 (NCT03940196) enrolled adults with PROC, ≤5 prior lines of therapy (LOT), ≤2 prior LOT following platinum-resistance, and ECOG 0-1. Patients received TTFields (200 kHz; ≥18 hours/day)+PTX (80 mg/m^2) weekly or PTX. Primary endpoint was overall survival (OS). 558 patients were randomized to receive TTFields+PTX (n=280) or PTX (n=278) March 2019 to November 2021.
Patients were heavily pretreated in the ITT population, as 24.4% of patients had received 4+prior lines of therapy (LOT), and 65.9% had received prior bevacizumab. In the overall intention-to-treat population, TTFields therapy median duration was 15.9 (0.1-159.7) weeks.
Innovate-3 study excluding patients that had received doxorubicin prior to TTFields+Paclitaxel or Paclitaxel
This Example contains further data related to the study of Example 1. FIGS. 10-11 include data of PROC patients that had received doxorubicin prior to treatment or were Doxorubicin-/PLD-naïve and which received treatment comprising TTFields plus Paclitaxel or Paclitaxel alone. With Doxorubicin treatment prior to use, overall survival was 10.97 months with TTFields and 13.21 months without TTFields. […] In addition, without prior use of doxorubicin/PLD, the hazard ratio for TTFields was 0.593 with a p value of 0.005.

[2] = test system: tumor; assay: Preclinical data (unpublished): tumor fibrosis and tissue conductivity

CC(=O)O[C@H]1C(=O)[C@@]2(C)[C@H]([C@H](OC(=O)c3ccccc3)[C@]3(O)C[C@H](OC(=O)[C@H](O)[C@@H](NC(=O)c4ccccc4)c4ccccc4)C(C)=C1C3(C)C)[C@]1(OC(C)=O)CO[C@@H]1C[C@@H]2O [PTX, paclitaxel]
overall survival ([1]; Doxorubicin-/PLD-naïve group without prior use of doxorubicin (Example 2, FIGS. 10-11)): 11.93 months | overall survival, post-hoc analysis ([1]; PLD-naïve subgroup (Example 1, FIG. 7), TTFields+PTX n=113, PTX n=88): 11.7 months | median overall survival (OS) ([1]; overall ITT population, PROC patients, PTX 80 mg/m^2 weekly, TTFields 200 kHz, ≥18 hours/day): 11.9 months | overall survival ([1]; patients with Doxorubicin treatment prior to use (Example 2, FIG. 10)): 13.21 months

COc1cccc2c1C(=O)c1c(O)c3c(c(O)c1C2=O)C[C@@](O)(C(=O)CO)C[C@@H]3O[C@H]1C[C@H](N)[C@H](O)[C@H](C)O1 [doxorubicin]
tissue conductivity [2]: changes tissue conductivity | tumor fibrosis [2]: induces tumor fibrosis
